{
  "source": "patent US9834540B2",
  "about": "“Omeprazole Sodium semihydrate and preparation method thereof” (TIANJIN UNIVERSITY, priority 2015, dated 2017)",
  "key": {"[1]": {"conditions": "prior-art description; cited from earlier work"}, "stomach ECL cells": {"system": "stomach ECL cells", "conditions": "rat, in vivo"}, "[2]": {"assay": "Toxic responses test, lethal dose in mice", "conditions": "mouse, in vivo"}, "dogs": {"system": "dogs", "conditions": "dog, in vivo"}, "rats [3]": {"system": "rats", "conditions": "rat, in vivo, 140 mg/kg/day"}, "[4]": {"assay": "Toxic responses test, intravenous lethal dose in rats", "conditions": "rat, in vivo, read-out: intravenous LD50 (median lethal dose)"}, "rats [5]": {"system": "rats", "assay": "Carcinogenic test in rats within 24 months", "format": "in vivo", "conditions": "24 months persistently treated"}, "male and female rats [6]": {"system": "male and female rats", "conditions": "rat, in vivo"}, "[7]": {"assay": "DSC analysis, thermal decomposition temperature", "format": "physicochemical", "conditions": "10° C./min, 25˜300° C.", "experimental": "The DSC data is obtained by analysis using a differential scanning calorimetry (DSC1/500, Mettler Toledo Corporation, Switzerland), and the analysis conditions are as follows: adding 10 mg of sample to a 40 μL Aluminum crucible, providing high-purity nitrogen as reaction gas and shield gas with a gas-flow rate of 50 mL/min and 20 mL/min, and raising the temperature at a rate of 10° C./min and a range of 25˜300° C."}, "[8]": {"assay": "Hygroscopicity at 40° C. by dynamic vapor sorption", "format": "physicochemical"}, "[9]": {"assay": "Thermal stability test at 60° C. (airtight container, 10 days, weighed regularly)", "format": "physicochemical", "conditions": "for Change of crystal form / X-ray powder diffraction pattern after deposit at 60° C.: 10 days"}, "Flowability (carr index)": {"assay": "Flowability (carr index)", "format": "physicochemical"}, "[10]": {"assay": "Deposit at 40° C. and relative humidity 75% for 3 days", "format": "physicochemical", "conditions": "relative humidity 75%", "experimental": "0.45 g of Omeprazole Sodium monohydrate, 20 mL of ethyl acetate and 10 mL of s-butanol were added to a crystallizer, and the mixture was stirred at a temperature of 35° C. and a speed of 200 r/min for 2 hours, followed by filtrating and drying to provide 0.42 g of Omeprazole Sodium semihydrate with a mole yield of 95.6% and a HPLC purity of 99.8%. The product had same X-ray powder diffraction pattern as FIG. 1, same solid Fourier transform infrared spectrum as FIG. 2, and DSC decomposition temperature of 227.5° C."}, "[11]": {"assay": "Toxic responses, overall comparison", "conditions": "in words"}, "male and female rats [12]": {"system": "male and female rats", "assay": "Reproductive toxicity test", "conditions": "oral 138 mg/kg/day"}, "[13]": {"conditions": "listed as Example 1, sodium salt"}, "[14]": {"conditions": "listed as Example 2, sodium salt"}, "[15]": {"conditions": "listed as Example 3, sodium salt"}},
  "note": "“And” between values parts separate entries of the source, which are not always exact repeats. Identical values can stand only once. “Also recorded” adds a separate entry of the source.",
  "data": [
    {"smiles": "COc1ccc2[nH]c([S+]([O-])Cc3ncc(C)c(OC)c3C)nc2c1", "note": "(stereo not drawn) [Omeprazole Sodium hydrate]", "values": [
      {"measurement": "stability (in words)", "setting": "[1]", "result": "poor stability"}
    ]},
    {"smiles": "COc1ccc2[nH]c([S+]([O-])Cc3ncc(C)c(OC)c3C)nc2c1", "note": "(stereo not drawn) [Omeprazole]", "values": [
      {"measurement": "stomach ECL cell findings in long-term treatment", "setting": "stomach ECL cells", "result": "cell increase and benign tumour were observed in stomach ECL cells"},
      {"measurement": "LD50", "setting": "[2]; mice, intravenous, read-out: Intravenous LD50", "result": 82.8, "unit": "mg/kg"},
      {"measurement": "LD50", "setting": "[2]; oral, species not restated, follows mice, read-out: oral LD50", "result": "> 2000", "unit": "mg/kg"},
      {"measurement": "Intravenous LDLo (lowest published lethal dose)", "setting": "dogs", "result": 500, "unit": "mg/kg"},
      {"measurement": "long-term toxicity findings", "setting": "rats [3]", "result": "liver and kidney increased in weight without histologic changes"},
      {"measurement": "LD50", "setting": "[4]", "result": 302, "unit": "mg/kg"}
    ]},
    {"smiles": "COc1ccc2[n-]c([S+]([O-])Cc3ncc(C)c(OC)c3C)nc2c1.[Na+]", "note": "(stereo not drawn) [Omeprazole Sodium semihydrate]", "values": [
      {"measurement": "carcinogenic test: gastric mucosa finding", "setting": "rats [5]", "result": "enterochromaffin-like cell hyperplasia in gastric mucosa"},
      {"measurement": "carcinogenic test: carcinogenesis / cancer metastasis", "setting": "rats [5]; sodium salt", "result": "cancer metastasis is not found; also recorded: carcinogenesis occurred without cancer metastasis"},
      {"measurement": "reproductive toxicity test result", "setting": "male and female rats [6]", "result": "negative"},
      {"measurement": "thermal decomposition temperature (DSC decomposing exothermic peak)", "setting": "[7]; [13]", "result": 227.5, "unit": "°C"},
      {"measurement": "thermal decomposition temperature (DSC decomposing exothermic peak)", "setting": "[7]; [14]", "result": 229.2, "unit": "°C"},
      {"measurement": "thermal decomposition temperature (DSC decomposing exothermic peak)", "setting": "[7]; [15]", "result": 229.5, "unit": "°C"},
      {"measurement": "thermal decomposition temperature (DSC decomposing exothermic peak)", "setting": "[7]; sodium salt", "result": "228.5±1 °C and 228.5 °C"},
      {"measurement": "hygroscopicity compared with Omeprazole Sodium monohydrate", "setting": "[8]; in words", "result": "lower hygroscopicity"},
      {"measurement": "Weight changing rate", "setting": "[8]; relative humidity 0%", "result": 0, "unit": "%"},
      {"measurement": "Weight changing rate", "setting": "[8]; relative humidity 5%", "result": 0.001, "unit": "%"},
      {"measurement": "Weight changing rate", "setting": "[8]; relative humidity 10%", "result": 0.004, "unit": "%"},
      {"measurement": "Weight changing rate", "setting": "[8]; relative humidity 15%", "result": 0.01, "unit": "%"},
      {"measurement": "Weight changing rate", "setting": "[8]; relative humidity 20%", "result": 0.02, "unit": "%"},
      {"measurement": "Weight changing rate", "setting": "[8]; relative humidity 25%", "result": 0.02, "unit": "%"},
      {"measurement": "Weight changing rate", "setting": "[8]; relative humidity 30%", "result": 0.03, "unit": "%"},
      {"measurement": "Weight changing rate", "setting": "[8]; relative humidity 35%", "result": 0.03, "unit": "%"},
      {"measurement": "Weight changing rate", "setting": "[8]; relative humidity 40%", "result": 0.03, "unit": "%"},
      {"measurement": "Weight changing rate", "setting": "[8]; relative humidity 45%", "result": 0.14, "unit": "%"},
      {"measurement": "Weight changing rate", "setting": "[8]; relative humidity 50%", "result": 0.17, "unit": "%"},
      {"measurement": "Weight changing rate", "setting": "[8]; relative humidity 55%", "result": 0.28, "unit": "%"},
      {"measurement": "Weight changing rate", "setting": "[8]; relative humidity 60%", "result": 0.37, "unit": "%"},
      {"measurement": "Weight changing rate", "setting": "[8]; relative humidity 65%", "result": 0.45, "unit": "%"},
      {"measurement": "Weight changing rate", "setting": "[8]; relative humidity 70%", "result": 0.53, "unit": "%"},
      {"measurement": "Weight changing rate", "setting": "[8]; relative humidity 75%", "result": 0.69, "unit": "%"},
      {"measurement": "Weight changing rate", "setting": "[9]; 0 day", "result": 0, "unit": "%"},
      {"measurement": "Weight of sample", "setting": "[9]; 0 day", "result": 9.5852, "unit": "g"},
      {"measurement": "Weight changing rate", "setting": "[9]; 5 day", "result": 1.1, "unit": "%"},
      {"measurement": "Weight of sample", "setting": "[9]; 5 day", "result": 9.4826, "unit": "g"},
      {"measurement": "Weight of sample", "setting": "[9]; 10 day", "result": 9.3790, "unit": "g"},
      {"measurement": "Weight changing rate", "setting": "[9]; 10 day, listed as Example 1, sodium salt", "result": 2.4, "unit": "%"},
      {"measurement": "Weight changing rate", "setting": "[9]; 10 day, listed as Example 2, sodium salt", "result": 2.5, "unit": "%"},
      {"measurement": "Weight changing rate", "setting": "[9]; 10 day, listed as Example 3, sodium salt", "result": 2.4, "unit": "%"},
      {"measurement": "Change of crystal form / X-ray powder diffraction pattern after deposit at 60° C.", "setting": "[9]; [13]", "result": "without making any significant changes in the X-ray powder diffraction pattern"},
      {"measurement": "Change of crystal form / X-ray powder diffraction pattern after deposit at 60° C.", "setting": "[9]; [14]", "result": "without making any significant changes in the X-ray powder diffraction pattern"},
      {"measurement": "Change of crystal form / X-ray powder diffraction pattern after deposit at 60° C.", "setting": "[9]; [15]", "result": "without making any significant changes in the X-ray powder diffraction pattern"},
      {"measurement": "Change of crystal form / X-ray powder diffraction pattern after deposit at 60° C.", "setting": "[9]; sodium salt", "result": "does not make any significant change"},
      {"measurement": "carr index", "setting": "Flowability (carr index); [13]", "result": 14.3, "unit": "%"},
      {"measurement": "carr index", "setting": "Flowability (carr index); [14]", "result": 13.9, "unit": "%"},
      {"measurement": "carr index", "setting": "Flowability (carr index); [15]", "result": 14.7, "unit": "%"},
      {"measurement": "carr index", "setting": "Flowability (carr index); sodium salt", "result": "less than 15%"},
      {"measurement": "Weight changing rate", "setting": "[10]", "result": 0.68, "unit": "%"},
      {"measurement": "toxicity compared with existing Omeprazole Sodium or monohydrate", "setting": "[11]", "result": "improved toxicity"},
      {"measurement": "influence on reproductive performance", "setting": "male and female rats [12]", "result": "no influence on reproductive performance"},
      {"measurement": "drug mutation test result", "setting": "Drug mutation test", "result": "negative"}
    ]}
  ]
}
